Non-standard residues stand in square brackets, D forms with d. Residues, ends and D or L forms follow the SMILES beside them. ξ: configuration not given here. *: point of attachment. Isovaleryl = CC(C)CC(=O)*; ξChg = NC(C(=O)O)C1CCCCC1; PhAc = O=C(Cc1ccccc1)*; Boc = CC(C)(C)OC(=O)*
| SMILES | melting point [°C] |
| --- | --- |
| O=C(Cc1cc(F)cc(F)c1)N[C@H](C(=O)N[C@H](CO)c1ccccc1)c1ccccc1 [Example 245, N-[N-(3,5-Difluorophenylacetyl)-L-phenylglycinyl]-L-phenylglycinol] | 231.4 |
| COC(=O)[C@H](CCc1ccccc1)NC(=O)[C@H](C)NC(=O)Cc1cc(F)cc(F)c1 [Example 44, Methyl N-[N-(3,5-Difluorophenylacetyl)-L-alaninyl]-(S)-2-amino-4-phenylbutanoate] | 147 to 149.5 |
| COC(=O)[C@H](Cc1c[nH]cn1)NC(=O)[C@H](C)NC(=O)Cc1cc(F)cc(F)c1 [Example 2, N-[N-(3,5-Difluorophenylacetyl)-L-alaninyl]-L-histidine Methyl Ester] | 195 to 197 |
| COC(=O)[C@H](Cc1ccc(OCC(=O)OC(C)(C)C)cc1)NC(=O)[C@H](C)NC(=O)Cc1cc(F)cc(F)c1 [Example 14, N-[N-(3,5-Difluorophenylacetyl)-L-alaninyl]-L-4-[(tert-butyloxycarbonyl)methoxy]phenylalanine Methyl Ester] | 116 to 119 |
| C[C@H](NC(=O)Cc1cc(F)cc(F)c1)C(=O)NCC(=O)OCCc1ccccc1 [Example 45, N-[N-(3,5-Difluorophenylacetyl)-L-alaninyl]glycine 2-Phenylethyl Ester] | 154 to 155.2 |
| COC(=O)[C@@H](NC(=O)[C@H](Cc1ccccc1)NC(=O)[C@H](C)NC(=O)Cc1cc(F)cc(F)c1)c1ccccc1 [Example 109, N-[N-[N-(3,5-Difluorophenylacetyl)-L-alaninyl]-L-phenylalaninyl]-L-phenylglycine Methyl Ester] | 203 to 207 |
| COC(=O)[C@@H](NC(=O)[C@@H](NC(=O)Cc1cc(F)cc(F)c1)c1ccsc1)c1ccccc1 [Example 258, N-[N-(3,5-Difluorophenylacetyl)-(S)-2-amino-2-(thien-3-yl)acetyl]-L-phenylglycine Methyl Ester] | 229.3 |
| COC(=O)C(NC(=O)[C@H](C)NC(=O)Cc1cc(F)cc(F)c1)c1csc2ccccc12 (stereo partly drawn) [Example 175, Methyl N-[N-(3,5-Difluorophenylacetyl)-L-alaninyl]-2-amino-2-(benzothiophen-3-yl)acetate] | 185 to 186 |
| COC(=O)[C@H](NC(=O)[C@H](C)NC(=O)Cc1cc(F)cc(F)c1)c1cccs1 [Example 178, Methyl N-[N-(3,5-Difluorophenylacetyl)-L-alaninyl]-(S)-2-amino-2-(2-thienyl)acetate] | 180 to 181 |
| COC(=O)[C@H](Cc1cscn1)NC(=O)[C@H](C)NC(=O)Cc1cc(F)cc(F)c1 [Example 31, Methyl N-[N-(3,5-Difluorophenylacetyl)-L-alaninyl]-(S)-2-amino-3-(thiazol-4-yl)propionate] | 136 to 139 |
| COC(=O)[C@@H](NC(=O)[C@H](Cc1ccccc1)NC(=O)Cc1cc(F)cc(F)c1)c1ccccc1 [Example 197, N-[N-(3,5-Difluorophenylacetyl)-L-phenylalaninyl]-L-phenylglycine Methyl Ester] | 188.3 |
| COC(=O)[C@H](Cc1ccc(OCCCN(C)C)cc1)NC(=O)[C@H](C)NC(=O)Cc1cc(F)cc(F)c1 [Example 13, N-[N-(3,5-Difluorophenylacetyl)-L-alaninyl]-L-4-[3-(N,N-dimethylamino)propoxy]phenylalanine Methyl Ester] | 153 to 155 |
| COC(=O)C1Cc2ccccc2CN1C(=O)[C@H](C)NC(=O)Cc1cc(F)cc(F)c1 (stereo partly drawn) [Example 32, Methyl 2-[N-(3,5-Difluorophenylacetyl)-L-alaninyl]-1,2,3,4-tetrahydroisoquinoline-3-carboxylate] | 37 to 40 |
| CC(C)[C@H](NC(=O)Cc1cc(F)cc(F)c1)C(=O)N[C@H](C(=O)OC(C)(C)C)c1ccccc1 [Example 192, N-[N-(3,5-Difluorophenylacetyl)-L-valinyl]-L-phenylglycine tert-Butyl Ester] | 170.5 to 171.8 |
| COC(=O)[C@H](Cc1c[nH]c2ccccc12)NC(=O)[C@H](C)NC(=O)Cc1cc(F)cc(F)c1 [Example 106, N-[N-(3,5-Difluorophenylacetyl)-L-alaninyl]-L-tryptophan Methyl Ester] | 191 to 193 |
| COC(=O)[C@H](CCCCNC(=O)OC(C)(C)C)NC(=O)[C@H](C)NC(=O)Cc1ccccc1 [Example 205, N-[N-(Phenylacetyl)-L-alaninyl]-Nε-(tert-butoxycarbonyl)-L-lysine Methyl Ester] (PhAc-Ala-Lys(Boc)-OMe) | 119 to 121 |

The next lines start with the values.

| melting point [°C] | SMILES |
| --- | --- |
| 125.5 to 126.5 | C=CCCC(=O)N[C@@H](C)C(=O)N[C@@H](Cc1ccccc1)C(=O)OC [Example 11, N-[N-(Pent-4-enoyl)-L-alaninyl]-L-phenylalanine Methyl Ester] |
| 220 to 224 | CCOC(=O)[C@H](C)NC(=O)C(NC(=O)CC(C)C)C1CCCCC1 (stereo partly drawn) [Example 128, N-[N-(Isovaleryl)-2-amino-2-cyclohexylacetyl]-L-alanine Ethyl Ester] (Isovaleryl-[ξChg]-Ala-OEt) |
| 196 to 198 | CCOC(=O)[C@H](C)NC(=O)[C@@H](NC(=O)CC1CCCCC1)c1ccccc1 [Example 110, N-[N-(Cyclohexylacetyl)L-phenylglycinyl]-L-alanine Ethyl Ester] |
| 179 to 181 | CCOC(=O)[C@H](CO)NC(=O)[C@H](C)NC(=O)Cc1cccc([N+](=O)[O-])c1 [Example 117, N-[N-(3-Nitrophenylacetyl)-L-alaninyl]-L-serine Ethyl Ester] |
| 152 to 154 | COC(=O)[C@H](Cc1ccccc1)NC(=O)[C@H](C)NC(=O)Cc1ccncc1 [Example 133, N-[N-(4-Pyridylacetyl)-L-alaninyl]-L-phenylalanine Methyl Ester] |
| 225 to 226.5 | COC(=O)[C@@H](NC(=O)[C@@H](NC(=O)Cc1cc(F)cc(F)c1)C1CC1)c1ccccc1 [Example 257, N-[N-(3,5-Difluorophenylacetyl)-(S)-2-amino-2-(cyclopropyl)acetyl]-L-phenylglycine Methyl Ester] |
| 133 to 136 | C[C@H](NC(=O)Cc1cc(F)cc(F)c1)C(=O)N[C@H](C(=O)OCC(C)(C)C)c1ccccc1 [Example 138, N-[N-(3,5-Difluorophenylacetyl)-L-alaninyl]-L-phenylglycine Neopentyl Ester] |
| 140.5 to 142 | COC(=O)[C@H](C)NC(=O)[C@H](C)NC(=O)Cc1ccccc1 [Example 200, N-[N-(Phenylacetyl)-L-alaninyl]-L-alanine Methyl Ester] (HELM PEPTIDE1{[O=C(Cc1ccccc1)[*:2]].A.A.[CO[*:1]]}$$$$V2.0) |
| 153 to 170 | CCOC(=O)C(NC(=O)[C@H](C)NC(=O)Cc1cc(F)cc(F)c1)c1ccccc1F (stereo partly drawn) [Example 135, Ethyl N-[N-(3,5-Difluorophenylacetyl)-L-alaninyl]-2-amino-2-(2-fluorophenyl)acetate] |
| 148 to 149.5 | COC(=O)[C@H](Cc1ccccc1)NC(=O)[C@H](C)NC(=O)Cc1ccccc1 [Example 204, N-[N-(Phenylacetyl)-L-alaninyl]-L-phenylalanine Methyl Ester] |
| 123 to 126 | COC(=O)[C@H](CCCCN(C)C)NC(=O)[C@H](C)NC(=O)Cc1cc(F)cc(F)c1 [Example 18, Methyl N-[N-(3,5-Difluorophenylacetyl)-L-alaninyl]-(S)-2-amino-6-(N,N-dimethylamino)hexanoate] |
| 102.5 to 105 | COC(=O)[C@H](CC(C)C)NC(=O)[C@H](C)NC(=O)Cc1ccccc1 [Example 201, N-[N-(Phenylacetyl)-L-alaninyl]-L-leucine Methyl Ester] (HELM PEPTIDE1{[O=C(Cc1ccccc1)[*:2]].A.L.[CO[*:1]]}$$$$V2.0) |
| 115.5 to 117.5 | CCCCCC=CCCC(=O)N[C@@H](C)C(=O)N[C@@H](Cc1ccccc1)C(=O)OC [Example 12, N-[N-(Dec-4-enoyl)-L-alaninyl]-L-phenylalanine Methyl Ester] |
| 135 to 137 | CCC[C@H](NC(=O)[C@H](C)NC(=O)Cc1ccccc1)C(=O)OC [Example 209, Methyl N-[N-(Phenylacetyl)-L-alaninyl]-2-(S)-aminopentanoate] (HELM PEPTIDE1{[O=C(Cc1ccccc1)[*:2]].A.[Nva].[CO[*:1]]}$$$$V2.0) |
| 217 to 221 | CC(C)COC(=O)[C@H](C)NC(=O)[C@@H](NC(=O)[C@@H](NC(=O)CC(C)C)C(C)C)c1ccccc1 [Example 83, N-[N-[N-(Isovaleryl)-L-valinyl]-L-phenylglycinyl]-L-alanine iso-butyl Ester] |
| 114 to 118 | COC(=O)C1CCCCN1C(=O)[C@H](C)NC(=O)Cc1cc(F)cc(F)c1 (stereo partly drawn) [Example 218, Methyl 1-[N-(3,5-Difluorophenylacetyl)-L-alaninyl]piperidine-2-carboxylate] |
| 117 to 119 | CCOC(=O)[C@H](Cc1ccc(O)cc1)NC(=O)[C@H](C)NC(=O)Cc1cccc([N+](=O)[O-])c1 [Example 81, N-[N-(3-Nitrophenylacetyl)-L-alaninyl]-L-tyrosine Ethyl Ester] |
| 226.5 | COC(=O)[C@@H](NC(=O)[C@@H](NC(=O)Cc1cc(F)cc(F)c1)C(C)C)c1ccccc1 [Example 194, N-[N-(3,5-Difluorophenylacetyl)-L-valinyl]-L-phenylglycine Methyl Ester] |
| 146 to 157 | CCOC(=O)C(NC(=O)[C@H](C)NC(=O)Cc1cc(F)cc(F)c1)c1cccnc1 (stereo partly drawn) [Example 53, Ethyl N-[N-(3,5-Difluorophenylacetyl)-L-alaninyl]-2-amino-2-(3-pyridyl)acetate] |
| 105 to 107 | C[C@H](NC(=O)CC1CC1)C(=O)N[C@H](C(=O)OC(C)(C)C)c1ccccc1 [Example 189, N-[N-(Cyclopropylacetyl)-L-alaninyl]-L-phenylglycine tert-Butyl Ester] |
| 193 to 195 | CCOC(=O)[C@H](C)NC(=O)[C@H](C)NC(=O)Cc1cccc([N+](=O)[O-])c1 [Example 76, N-[N-(3-Nitrophenylacetyl)-L-alaninyl]-L-alanine Ethyl Ester] |
